Reference: US9732037B2, “2-aminopyridine-based selective neuronal nitric oxide synthase inhibitors” (Northwestern University, priority 2013, dated 2017)

Key:
Type in all cases: biochemical
bovine eNOS = bovine eNOS (Bos taurus (Bovine), UniProt P29473); test: NOS inhibition assay, eNOS; details: for Ki: bovine eNOS, KM 1.7 μM, Ki = IC50/(1 + [S]/KM); for Selectivity e/n: ratio of Ki (eNOS) to nNOS
Excerpt: (§1) Nitric oxide formation from NOS was monitored using literature techniques.

rat nNOS = rat nNOS (Rattus norvegicus (Rat), UniProt P29476); test: NOS inhibition assay, nNOS; details: KM 1.3 μM, Ki = IC50/(1 + [S]/KM)
Excerpt: as §1

murine iNOS = murine iNOS (Mus musculus (Mouse), UniProt P29477); test: NOS inhibition assay, iNOS; details: for Ki: murine iNOS, KM 8.2 μM, Ki = IC50/(1 + [S]/KM); for Selectivity i/n: ratio of Ki (iNOS) to nNOS
Excerpt: as §1

| Ki (bovine eNOS) | Ki (rat nNOS) | Ki (murine iNOS) | Selectivity e/n (bovine eNOS) | Selectivity i/n (murine iNOS) | SMILES |
| --- | --- | --- | --- | --- | --- |
| 18 µM | 60 nM | 8.47 µM |  |  | Cc1cc(N)nc(COc2cccc(OCCCN)c2)c1 [Compound 1] |
| 62.8 µM | 616 nM | 27.1 µM |  |  | Cc1cc(N)nc(COc2cccc(OCc3ccncc3)c2)c1 [Compound 2] |
| 28 µM | 117 nM | 17.1 µM |  |  | Cc1cc(N)nc(COc2cccc(OCC3CCNCC3)c2)c1 [Compound 3] |
| 2.18 µM | 26 nM | 2.27 µM | 84 | 87 | Cc1cc(N)nc(COC[C@@H]2C[C@@H](OCc3cc(C)cc(N)n3)CN2)c1 [Compound 6] |
| 3.47 µM | 34 nM | 5.59 µM | 102 | 164 | Cc1cc(N)nc(COC[C@H]2C[C@@H](OCc3cc(C)cc(N)n3)CN2)c1 [Compound 7] |
| 2.36 µM | 31 nM | 1.9 µM | 76 | 61 | Cc1cc(N)nc(COC[C@@H]2C[C@H](OCc3cc(C)cc(N)n3)CN2)c1 [Compound 8] |
| 6.93 µM | 10 nM | 2.95 µM | 693 | 295 | Cc1cc(N)nc(COC[C@H]2C[C@H](OCc3cc(C)cc(N)n3)CN2)c1 [Compound 9] |
| 6.25 µM | 70 nM | 2.32 µM | 89 | 33 | Cc1cc(N)nc(COCCOC[C@@H]2C[C@@H](OCc3cc(C)cc(N)n3)CN2)c1 [Compound 10] |
| 9.3 µM | 199 nM | 13.6 µM | 46 | 68 | Cc1cc(N)nc(COCCOC[C@H]2C[C@@H](OCc3cc(C)cc(N)n3)CN2)c1 [Compound 11] |
| 7.96 µM | 153 nM | 5.86 µM | 52 | 38 | Cc1cc(N)nc(CO[C@H]2CN[C@H](COCCOCc3cccc(F)c3)C2)c1 [Compound 12] |
| 11.7 µM | 330 nM | 8.47 µM | 35 | 26 | Cc1cc(N)nc(CO[C@H]2CN[C@@H](COCCOCc3cccc(F)c3)C2)c1 [Compound 13] |
